Measurements published in US12503436B2, “Compounds and compositions for treating conditions associated with STING activity” (NOVARTIS PHARMA AG, priority 2021, dated 2025).

biological target: STING (Homo sapiens, UniProt Q86WV6, G230A/H232R/R293Q/R71H); test: STING reporter assay in THP1-Dual KO-IFNAR2 cells (2′3′cGAMP stimulation, luciferase reporter); type: cell-based; details: 15 μM 2′3′cGAMP stimulation, 24 h, read-out: Pharmaron, THP1_IFNAR2 STING 24 h Luci Normalized: GeoMean EC50
Procedure: STING pathway activation by the compounds described herein was measured using THP1-Dual™ cells (KO-IFNAR2).
THP1-Dual™ KO-IFNAR2 Cells (obtained from InvivoGen) were maintained in RPMI, 10% FCS, 5 ml P/S, 2 mM L-glut, 10 mM Hepes, and 1 mM sodium pyruvate. Compounds were spotted in empty 384 well tissue culture plates (Greiner 781182) by Echo for a final concentration of 0.0017-100 μM. Cells were plated into the TC plates at 40 μL per well, 2×10E6 cells/mL. For activation with STING ligand, 2′3′cGAMP (MW 718.38, obtained from Invivogen), was prepared in Optimem media.
The following solutions were prepared for each 1×384 plate: • Solution A: 2 mL Optimem with one of the following stimuli: • 60 μL of 10 mM 2′3′cGAMP→150 μM stock • Solution B: 2 mL Optimem with 60 μL Lipofectamine 2000→Incubate 5 min at RT
2 mL of solution A and 2 ml Solution B was mixed and incubated for 20 min at room temperature (RT). 20 μL of transfection solution (A+B) was added on top of the plated cells, with a final 2′3′cGAMP concentration of 15 μM. The plates were then centrifuged immediately at 340 g for 1 minute, after which they were incubated at 37° C., 5% CO2, >98% humidity for 24 h. Luciferase reporter activity was then measured. EC50 values were calculated by using standard methods known in the art.
Luciferase reporter assay: 10 μL of supernatant from the assay was transferred to white 384-plate with flat bottom and squared wells. One pouch of QUANTI-Luc™ Plus was dissolved in 25 mL of water. 100 μL of QLC Stabilizer per 25 mL of QUANTI-Luc™ Plus solution was added. 50 μL of QUANTI-Luc™ Plus/QLC solution per well was then added. Luminescence was measured on a Platereader (e.g., Spectramax I3X (Molecular Devices GF3637001)).
Luciferase reporter activity was then measured. EC50 values were calculated by using standard methods known in the art.

Chain of STING (Q86WV6 whole entry R71H/G230A/H232R/R293Q): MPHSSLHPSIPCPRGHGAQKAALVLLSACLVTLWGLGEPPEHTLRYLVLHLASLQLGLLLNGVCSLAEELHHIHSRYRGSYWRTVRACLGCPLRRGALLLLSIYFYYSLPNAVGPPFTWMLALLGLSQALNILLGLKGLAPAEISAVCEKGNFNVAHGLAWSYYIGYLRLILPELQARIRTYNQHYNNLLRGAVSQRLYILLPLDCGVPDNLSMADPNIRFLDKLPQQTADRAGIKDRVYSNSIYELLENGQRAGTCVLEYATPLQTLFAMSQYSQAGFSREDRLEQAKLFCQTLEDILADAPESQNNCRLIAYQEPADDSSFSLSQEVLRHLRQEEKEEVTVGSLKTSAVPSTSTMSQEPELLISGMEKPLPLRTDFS

| Compound | EC50 |
| --- | --- |
| O=C(Nc1c[nH]c2ccc(OCCc3ccc(C(F)(F)F)cc3)cc12)C1CN(CC(F)F)C1 [Compound 149, 1-(2,2-difluoroethyl)-N-(5-(4-(trifluoromethyl)phenethoxy)-1H-indol-3-yl)azetidine-3-carboxamide] | 40 to 200 nM |
| C[C@H]1C[C@@H](C(=O)Nc2c[nH]c3ccc(OCC[C@@H]4C[C@@H]5CN(CC(F)(F)F)C[C@@H]5C4)cc23)C1 [Compound 150, (1R,3S)—N-(5-{2-[(3aR,5S,6aS)-2-(2,2,2-trifluoroethyl)-octahydrocyclopenta[c]pyrrol-5-yl]ethoxy}-1H-indol-3-yl)-3-methylcyclobutane-1-carboxamide] | 200 to 1000 nM |
| CC1(F)CC(C(=O)Nc2c[nH]c3ccc(OCC[C@@H]4C[C@@H]5CN(CC(F)(F)F)C[C@@H]5C4)cc23)C1 (stereo partly drawn) [Compound 151, 3-fluoro-3-methyl-N-(5-(2-((3aR,5r,6aS)-2-(2,2,2-trifluoroethyl)octahydrocyclopenta[c]pyrrol-5-yl)ethoxy)-1H-indol-3-yl)cyclobutane-1-carboxamide] | 200 to 1000 nM |
| O=C(Nc1c[nH]c2ccc(OCC[C@@H]3C[C@@H]4CN(CC(F)(F)F)C[C@@H]4C3)cc12)C1CCOCC1 [Compound 152, N-(5-{2-[(3aR,5S,6aS)-2-(2,2,2-trifluoroethyl)-octahydrocyclopenta[c]pyrrol-5-yl]ethoxy}-1H-indol-3-yl)oxane-4-carboxamide] | 200 to 1000 nM |
| O=C(Nc1c[nH]c2ccc(OCc3ccc(C(F)(F)F)cc3)cc12)C1CC(CO)C1 (stereo not drawn) [Compound 153, 3-(hydroxymethyl)-N-(5-((4-(trifluoromethyl)benzyl)oxy)-1H-indol-3-yl)cyclobutane-1-carboxamide] | 200 to 1000 nM |
| CC1(C(=O)Nc2c[nH]c3ccc(OCc4ccc(C(F)(F)F)cc4)cc23)CCOC1 (stereo not drawn) [Compound 154, 3-methyl-N-(5-((4-(trifluoromethyl)benzyl)oxy)-1H-indol-3-yl)tetrahydrofuran-3-carboxamide] | 200 to 1000 nM |
| CC1(C)CC1C(=O)Nc1c[nH]c2ccc(OCc3ccc(C(F)(F)F)cc3)cc12 (stereo not drawn) [Compound 155, 2,2-dimethyl-N-(5-((4-(trifluoromethyl)benzyl)oxy)-1H-indol-3-yl)cyclopropane-1-carboxamide] | 200 to 1000 nM |
| O=C(Nc1c[nH]c2ccc(OCc3ccc(C(F)(F)F)cc3)cc12)C1CCOCC1 [Compound 156, N-(5-{[4-(trifluoromethyl)phenyl]methoxy}-1H-indol-3-yl)oxane-4-carboxamide] | 200 to 1000 nM |
| CC(C)(C)CC(=O)Nc1c[nH]c2ccc(O[C@H]3C[C@@H](c4ccc(C(F)(F)F)cc4)C3)cc12 [Compound 157, 3,3-dimethyl-N-(5-(cis-3-(4-(trifluoromethyl)phenyl)cyclobutoxy)-1H-indol-3-yl)butanamide] | 40 to 200 nM |
| O=C(Nc1c[nH]c2ccc(O[C@H]3C[C@@H](c4ccc(C(F)(F)F)cc4)C3)cc12)C1CC(CO)C1 (stereo partly drawn) [Compound 158, 3-(hydroxymethyl)-N-(5-(cis-3-(4-(trifluoromethyl)phenyl)cyclobutoxy)-1H-indol-3-yl)cyclobutane-1-carboxamide] | 40 to 200 nM |
| COC1CC(C(=O)Nc2c[nH]c3ccc(O[C@H]4C[C@@H](c5ccc(C(F)(F)F)cc5)C4)cc23)C1 (stereo partly drawn) [Compound 159, 3-methoxy-N-{5-[(1S,3S)-3-[4-(trifluoromethyl)phenyl]cyclobutoxy]-1H-indol-3-yl}cyclobutane-1-carboxamide] | 40 to 200 nM |
| CC1(C(=O)Nc2c[nH]c3ccc(OCC[C@@H]4C[C@@H]5CN(CC(F)(F)F)C[C@@H]5C4)cc23)CCCO1 (stereo partly drawn) [Compound 160, 2-methyl-N-(5-(2-((3aR,5r,6aS)-2-(2,2,2-trifluoroethyl)octahydrocyclopenta[c]pyrrol-5-yl)ethoxy)-1H-indol-3-yl)tetrahydrofuran-2-carboxamide] | 200 to 1000 nM |
| CC1(C(=O)Nc2c[nH]c3ccc(OCC[C@@H]4C[C@@H]5CN(CC(F)(F)F)C[C@@H]5C4)cc23)CCOCC1 [Compound 161, 4-methyl-N-(5-(2-((3aR,5r,6aS)-2-(2,2,2-trifluoroethyl)octahydrocyclopenta[c]pyrrol-5-yl)ethoxy)-1H-indol-3-yl)tetrahydro-2H-pyran-4-carboxamide] | 40 to 200 nM |
| C[C@H]1C[C@@H](C(=O)Nc2c[nH]c3ccc(OCCc4ccc(C(F)(F)F)cc4)cc23)C1 [Compound 162, cis-3-methyl-N-(5-(4-(trifluoromethyl)phenethoxy)-1H-indol-3-yl)cyclobutane-1-carboxamide] | 40 to 200 nM |
| O=C(Nc1c[nH]c2ccc(OCCc3ccc(C(F)(F)F)cc3)cc12)C1COC1 [Compound 163, N-(5-(4-(trifluoromethyl)phenethoxy)-1H-indol-3-yl)oxetane-3-carboxamide] | 40 to 200 nM |
| O=C(Nc1c[nH]c2ccc(CCOc3ccc(C(F)(F)F)cc3)cc12)C1COC1 [Compound 164, N-(5-(2-(4-(trifluoromethyl)phenoxy)ethyl)-1H-indol-3-yl)oxetane-3-carboxamide] | 200 to 1000 nM |
| CC1(C(=O)Nc2c[nH]c3ccc(CCOc4ccc(C(F)(F)F)cc4)cc23)COC1 [Compound 165, 3-methyl-N-(5-(2-(4-(trifluoromethyl)phenoxy)ethyl)-1H-indol-3-yl)oxetane-3-carboxamide] | 40 to 200 nM |
| CC1(C(=O)Nc2c[nH]c3ccc(OCc4ccc(C(F)(F)F)cc4)cc23)COC1 [Compound 166, 3-methyl-N-(5-((4-(trifluoromethyl)benzyl)oxy)-1H-indol-3-yl)oxetane-3-carboxamide] | 40 to 200 nM |
| O=C(Nc1c[nH]c2ccc(CCOc3ccc(C(F)(F)F)nc3)cc12)C1CC1 [Compound 167, N-(5-(2-((6-(trifluoromethyl)pyridin-3-yl)oxy)ethyl)-1H-indol-3-yl)cyclopropanecarboxamide] | 200 to 1000 nM |
| CCC(=O)Nc1c[nH]c2ccc(CCOc3ccc(C)cc3)cc12 [Compound 168, N-(5-(2-(p-tolyloxy)ethyl)-1H-indol-3-yl)propionamide] | 200 to 1000 nM |
| CC(=O)Nc1c[nH]c2ccc(OCCc3ccc(S(F)(F)(F)(F)F)cc3)cc12 [Compound 169, N-(5-(4-(pentafluoro-16-sulfaneyl)phenethoxy)-1H-indol-3-yl)acetamide] | 40 to 200 nM |
| CC(=O)Nc1c[nH]c2ccc(CCOc3ccc(C4CCN(CC(F)(F)F)CC4)cc3)cc12 [Compound 170, N-(5-(2-(4-(1-(2,2,2-trifluoroethyl)piperidin-4-yl)phenoxy)ethyl)-1H-indol-3-yl)acetamide] | 200 to 1000 nM |
| CC(=O)Nc1c[nH]c2ccc(OCCC3CC4(C3)CN(CC(F)(F)F)C4)cc12 [Compound 171, N-(5-(2-(2-(2,2,2-trifluoroethyl)-2-azaspiro[3.3]heptan-6-yl)ethoxy)-1H-indol-3-yl)acetamide] | 1000 to 5000 nM |
| CC1(C(=O)Nc2c[nH]c3ccc(C(O)CCc4ccc(C(F)(F)F)cc4)cc23)CC1 (stereo not drawn) [Compound 172, N-(5-(1-hydroxy-3-(4-(trifluoromethyl)phenyl)propyl)-1H-indol-3-yl)-1-methylcyclopropane-1-carboxamide] | 200 to 1000 nM |
| CC(=O)Nc1c[nH]c2cc(Br)c(OCCc3ccc(C(F)(F)F)cc3)cc12 [Compound 173, N-(6-bromo-5-(4-(trifluoromethyl)phenethoxy)-1H-indol-3-yl)acetamide] | 5000 to 100000 nM |
| CC1(C(=O)Nc2c[nH]c3ccc(CC(O)Cc4ccc(C(F)(F)F)cc4)cc23)CC1 (stereo not drawn) [Compound 174, N-(5-(2-hydroxy-3-(4-(trifluoromethyl)phenyl)propyl)-1H-indol-3-yl)-1-methylcyclopropane-1-carboxamide] | 200 to 1000 nM |
| O=C(Nc1c[nH]c2ccc(CCOc3ccc(C(F)(F)F)cc3)cc12)C1CC1(F)Cl (stereo not drawn) [Compound 175, 2-chloro-2-fluoro-N-(5-(2-(4-(trifluoromethyl)phenoxy)ethyl)-1H-indol-3-yl)cyclopropane-1-carboxamide] | 200 to 1000 nM |
| COCC1(C(=O)Nc2c[nH]c3ccc(CCOc4ccc(C(F)(F)F)cc4)cc23)CC1 [Compound 176, 1-(methoxymethyl)-N-(5-{2-[4-(trifluoromethyl)phenoxy]ethyl}-1H-indol-3-yl)cyclopropane-1-carboxamide] | 200 to 1000 nM |
| O=C(Nc1c[nH]c2ccc(CCOc3ccc(C(F)(F)F)cc3)cc12)C1CC(Cl)C1 (stereo not drawn) [Compound 177, 3-chloro-N-(5-(2-(4-(trifluoromethyl)phenoxy)ethyl)-1H-indol-3-yl)cyclobutane-1-carboxamide] | 200 to 1000 nM |
| CC1(C(=O)Nc2c[nH]c3ccc(CCOc4ccc(C(F)(F)F)cc4)cc23)CCOC1 (stereo not drawn) [Compound 178, 3-methyl-N-(5-(2-(4-(trifluoromethyl)phenoxy)ethyl)-1H-indol-3-yl)tetrahydrofuran-3-carboxamide] | 200 to 1000 nM |
